# Results published in patent US7915292B2, “Antibacterial quinoline derivatives” (Janssen Pharmaceutica NV, priority 2005, dated 2011).
# Columns and labels:
# [1] = tested on: Mycobacterium tuberculosis (strain H37RV); assay: In-vitro method for testing compounds against M. tuberculosis (resazurin growth inhibition); type: cell-based; settings: 7 days incubation; for IC50: Mycobacterium tuberculosis, 168 h, read-out: M. tuberculosis pIC50 (converted)
# M. Smegmatis ATCC607 = assay: In-vitro anti-bacterial activity against strain M. smegmatis ATCC607 (Alamar Blue growth inhibition); type: cell-based; settings: 48 hours incubation; for IC50: Mycolicibacterium smegmatis, read-out: M. smegmatis pIC50 (converted)
# Experimental: Serial five-fold dilutions (45 μl in 180 μl) were made directly in the microtiter plates from column 2 to 11 using a customised robot system (Zymark Corp., Hopkinton, Mass.). Pipette tips were changed after every 3 dilutions to minimize pipetting errors with high hydrophobic compounds. Untreated control samples with (column 1) and without (column 12) inoculum were included in each microtiter plate. Approximately 250 CFU per well of bacteria inoculum, in a volume of 100 μl in 2.8× Mueller-Hinton broth medium, was added to the rows […]. The same volume of broth medium without inoculum was added to column 12 in row A to H. The cultures were incubated at 37° C. for 48 hours in a humidified 5% CO2 atmosphere (incubator with open air valve and continuous ventilation). At the end of incubation, two days after inoculation, the bacterial growth was quantitated fluorometrically. Therefore Alamar Blue (10×) was added to all wells in a volume of 20 μl and plates were incubated for another 2 hours at […] The fluorescence was read in a computer-controlled fluorometer (Cytofluor, Biosearch) at an excitation wavelength of 530 nm and an emission wavelength of 590 nm (gain 30). The percentage growth inhibition achieved by the compounds was calculated according to standard methods and expressed as pIC50 values.
# STA 29213 = assay: Microtitre plate assay, IC90 determination, STA 29213; type: cell-based, S. aureus; settings: 90% inhibitory concentration for bacterial growth, strain STA 29213, 24 hours at 37° C.; for IC90: Staphylococcus aureus, read-out: IC90 (μg/ml) STA 29213
# Experimental: (§1) Stocks (0.5 ml/tube) were stored at -70° C. until use. Bacteria titrations were performed in microtiter plates to detect the TCID50, in which the TCID50 represents the dilution that gives rise to bacterial growth in 50% of inoculated cultures. In general, an inoculum level of approximately 100 TCID50 was used for susceptibility testing. […] Serial five-fold dilutions (45 μl in 180 μl) were made directly in the microtiter plates from column 2 to reach column 11. Untreated control samples with (column 1) and without (column 12) inoculum were included in each microtiter plate. Depending on the bacteria type, approximately 10 to 60 CFU per well of bacteria inoculum (100 TCID50), in a volume of 100 μl in 2.8× Mueller-Hinton broth medium, was added to the rows […]. The same volume of broth medium without inoculum was added to column 12 in row A to H. The cultures were incubated at 37° C. for 24 hours under a normal atmosphere (incubator with open air valve and continuous ventilation). At the end of incubation, one day after inoculation, the bacterial growth was quantitated fluorometrically. Therefore resazurin (0.6 mg/ml) was added in a volume of 20 μl to all wells 3 hours after inoculation, and the plates were re-incubated overnight. A change in colour from blue to pink indicated the growth of bacteria. The fluorescence was read in a computer-controlled fluorometer (Cytofluor Biosearch) at an excitation wavelength of 530 nm and an emission wavelength of 590 nm. The % growth inhibition achieved by the compounds was calculated according to standard methods. The IC90 (expressed in μg/ml) was defined as the 90% inhibitory concentration for bacterial growth.
# ECO 25922 = assay: Microtitre plate assay, IC90 determination, ECO 25922; type: cell-based, E. coli; settings: 90% inhibitory concentration for bacterial growth, strain ECO 25922, 24 hours at 37° C.; for IC90: Escherichia coli, read-out: IC90 (μg/ml) ECO 25922
# Experimental: as §1
# EFA 29212 = assay: Microtitre plate assay, IC90 determination, EFA 29212; type: cell-based, E. faecalis; settings: 90% inhibitory concentration for bacterial growth, strain EFA 29212, 24 hours at 37° C.; for IC90: Enterococcus faecalis, read-out: IC90 (μg/ml) EFA 29212
# Experimental: as §1
# LMO 49594 = assay: Microtitre plate assay, IC90 determination, LMO 49594; type: cell-based, Listeria monocytogenes; settings: 90% inhibitory concentration for bacterial growth, strain LMO 49594, 24 hours at 37° C.; for IC90: Listeria monocytogenes, read-out: IC90 (μg/ml) LMO 49594
# Experimental: as §1
# SMU 33402 = assay: Microtitre plate assay, IC90 determination, SMU 33402; type: cell-based, S. mutans; settings: 90% inhibitory concentration for bacterial growth, strain SMU 33402, 24 hours at 37° C.; for IC90: Streptococcus mutans, read-out: IC90 (μg/ml) SMU 33402
# Experimental: as §1
# SPN 6305 = assay: Microtitre plate assay, IC90 determination, SPN 6305; type: cell-based, S. pneumoniae; settings: 90% inhibitory concentration for bacterial growth, strain SPN 6305, 24 hours at 37° C.; for IC90: Streptococcus pneumoniae, read-out: IC90 (μg/ml) SPN 6305
# Experimental: as §1
# SPY 8668 = assay: Microtitre plate assay, IC90 determination, SPY 8668; type: cell-based, S. pyogens; settings: 90% inhibitory concentration for bacterial growth, strain SPY 8668, 24 hours at 37° C.; for IC90: read-out: IC90 (μg/ml) SPY 8668
# Experimental: as §1
# STA RMETH = assay: Microtitre plate assay, IC90 determination, STA RMETH; type: cell-based, S. aureus; settings: Staphylococcus aureus; 90% inhibitory concentration for bacterial growth; strain STA RMETH; 24 hours at 37° C.; read-out: IC90 (μg/ml) STA RMETH
# Experimental: as §1
# BSU 43639 = assay: Microtitre plate assay, IC90 determination, BSU 43639; type: cell-based, Bacillus subtilis; settings: 90% inhibitory concentration for bacterial growth, strain BSU 43639, 24 hours at 37° C.
# Experimental: as §1
# EFA 14506 = assay: Microtitre plate assay, IC90 determination, EFA 14506; type: cell-based, E. faecalis; settings: 90% inhibitory concentration for bacterial growth, strain EFA 14506, 24 hours at 37° C.; for IC90: Enterococcus faecalis, read-out: IC90 (μg/ml) EFA 14506
# Experimental: as §1
# PAE 27853 = assay: Microtitre plate assay, IC90 determination, PAE 27853; type: cell-based, Pseudomonas aeruginosa; settings: 90% inhibitory concentration for bacterial growth, strain PAE 27853, 24 hours at 37° C.; for IC90: Pseudomonas aeruginosa, read-out: IC90 (μg/ml) PAE 27853
# Experimental: as §1
# STA 25923 = assay: Microtitre plate assay, IC90 determination, STA 25923; type: cell-based, S. aureus; settings: 90% inhibitory concentration for bacterial growth, strain STA 25923, 24 hours at 37° C.; for IC90: Staphylococcus aureus, read-out: IC90 (μg/ml) STA 25923
# Experimental: as §1
SMILES,IC50 [1],IC50 (M. Smegmatis ATCC607),melting point,M. smegmatis pIC50 (M. Smegmatis ATCC607),IC90 (μg/ml) STA 29213 (STA 29213),IC90 (ECO 25922),IC90 (EFA 29212),IC90 (LMO 49594),IC90 (STA 29213),also measured
CNC(=O)CN(C)C(c1ccccc1)c1cc2cc(Br)ccc2nc1OC (stereo not shown) [Compound 3],> 100000 nM,89100 nM,190 °C,,,,,,,
CCN(CC)C(=O)CN(C)C(c1ccccc1)c1cc2cc(Br)ccc2nc1OC (stereo not shown) [Compound 11],,,,5.1,11.8 µg/mL,,,,,
COc1nc2ccc(Br)cc2cc1C(c1ccccc1)N(CCN(C)C)c1ccccc1 (stereo not shown) [Compound 18],,2000 nM,120 °C,,,,,,,
COc1cccc(CN(CCN(C)C)C(c2ccccc2)c2cc3cc(Br)ccc3nc2OC)c1 (stereo not shown) [Compound 20],,1260 nM,,,,15.7 µg/mL,15.7 µg/mL,15.7 µg/mL,14 µg/mL,IC90 (SMU 33402): 12.5 µg/mL; IC90 (SPN 6305): 15.7 µg/mL; IC90 (SPY 8668): 12.5 µg/mL; IC90 (STA RMETH): 14 µg/mL
COc1nc2ccc(Br)cc2cc1C(c1ccccc1)N(CCN(C)C)Cc1ccccc1 (stereo not shown) [Compound 21],,,,5.8,10.1 µg/mL,,,,,M. tuberculosis pIC50 [1]: 5.1; IC90 (μg/ml) BSU 43639 (BSU 43639): 10.1 µg/mL; IC90 (μg/ml) ECO 25922 (ECO 25922): 12.7 µg/mL; IC90 (μg/ml) EFA 14506 (EFA 14506): 10.1 µg/mL; IC90 (μg/ml) EFA 29212 (EFA 29212): 12.7 µg/mL; IC90 (μg/ml) LMO 49594 (LMO 49594): 12.7 µg/mL; IC90 (μg/ml) PAE 27853 (PAE 27853): 12.7 µg/mL; IC90 (μg/ml) SMU 33402 (SMU 33402): 10.1 µg/mL; IC90 (μg/ml) SPN 6305 (SPN 6305): 12.7 µg/mL; IC90 (μg/ml) SPY 8668 (SPY 8668): 10.1 µg/mL; IC90 (μg/ml) STA 25923 (STA 25923): 11.3 µg/mL
COc1nc2ccc(Br)cc2cc1C(c1ccccc1F)N(CCN(C)C)Cc1ccccc1 (stereo not shown) [Compound 22],,1580 nM,,,,52.2 µg/mL,10.4 µg/mL,8.3 µg/mL,10.4 µg/mL,"IC90 (BSU 43639; Bacillus subtilis, read-out: IC90 (μg/ml) BSU 43639): 41.5 µg/mL; IC90 (EFA 14506): 41.5 µg/mL; IC90 (PAE 27853): 13.1 µg/mL; IC90 (STA 25923): 8.3 µg/mL"
CC(C)N(C)C(=O)CN(Cc1ccccc1)C(c1cccnc1)c1cc2ccccc2nc1-c1ccccc1 (stereo not shown) [Compound 34],,,,5.8,51.5 µg/mL,,,,,
Cc1ccc2nc(-c3ccccc3)c(C(c3ccccc3)N(CC(=O)N(C)C(C)C)Cc3ccccc3)cc2c1 (stereo not shown) [Compound 41],6310 nM,100 nM,126 °C,,,13.3 µg/mL,,,,
CN(C)CCN(Cc1ccccc1)C(c1ccccc1)c1cc2cc(Br)ccc2nc1-c1ccccc1 (stereo not shown) [Compound 51],7940 nM,1000 nM,,,,13.8 µg/mL,13.8 µg/mL,13.8 µg/mL,11 µg/mL,IC90 (EFA 14506): 11 µg/mL; IC90 (PAE 27853): 11 µg/mL; IC90 (SMU 33402): 6.9 µg/mL; IC90 (SPN 6305): 2.8 µg/mL; IC90 (SPY 8668): 2.8 µg/mL; IC90 (STA 25923): 12.3 µg/mL; IC90 (STA RMETH): 12.3 µg/mL
CN(C)C(=O)CN(Cc1ccccc1)C(c1ccccc1)c1cc2cc(Br)ccc2nc1-c1ccccc1 (stereo not shown) [Compound 53],20000 nM,316 nM,110 °C,,,14.2 µg/mL,,,,
